Experimental data reported in patent US10501518B2 (priority 2013, dated 2019).
Like-named read-outs stand apart in the source and are kept apart here. Starred links: 1 amine or outer side, 2 acyl side, 3 side chain; linkers in the order of their positions; H or OH if unused. Non-standard residues stand in square brackets, D forms with d. Residues, ends and D or L forms follow the SMILES beside them. *: point of attachment. NH(1S,2S-2-CONH2-cPent) = NC(=O)[C@H]1CCC[C@@H]1N*; β3hW = N[C@H](CC(=O)O)Cc1c[nH]c2ccccc12; X12 = O=C([C@H]1CCC[C@@H]1N[*:1])[*:2]; X13 = O=C([C@H]1CNC[C@@H]1N[*:1])[*:2]; hArg = N=C(N)NCCCC[C@H](N)C(=O)O; β3hE = N[C@@H](CCC(=O)O)CC(=O)O; β3hF = N[C@H](CC(=O)O)Cc1ccccc1; β3hN = NC(=O)C[C@H](N)CC(=O)O; β3hK = NCCCC[C@H](N)CC(=O)O; β3hM = CSCC[C@H](N)CC(=O)O; β3hD = NC(CC(=O)O)CC(=O)O

Experiments:
[1] = mouse, in vivo; cited from earlier work
PTHR = target: T1, PTHR (Homo sapiens, UniProt Q03431); assay: cAMP induction potency, N-terminal modifications and cyclic constraints (Tables 9, 10, 13); assay type: cell-based; conditions: Table 9
T1 construct: expressed in transfected cells
T1 sequence (Q03431 27-593): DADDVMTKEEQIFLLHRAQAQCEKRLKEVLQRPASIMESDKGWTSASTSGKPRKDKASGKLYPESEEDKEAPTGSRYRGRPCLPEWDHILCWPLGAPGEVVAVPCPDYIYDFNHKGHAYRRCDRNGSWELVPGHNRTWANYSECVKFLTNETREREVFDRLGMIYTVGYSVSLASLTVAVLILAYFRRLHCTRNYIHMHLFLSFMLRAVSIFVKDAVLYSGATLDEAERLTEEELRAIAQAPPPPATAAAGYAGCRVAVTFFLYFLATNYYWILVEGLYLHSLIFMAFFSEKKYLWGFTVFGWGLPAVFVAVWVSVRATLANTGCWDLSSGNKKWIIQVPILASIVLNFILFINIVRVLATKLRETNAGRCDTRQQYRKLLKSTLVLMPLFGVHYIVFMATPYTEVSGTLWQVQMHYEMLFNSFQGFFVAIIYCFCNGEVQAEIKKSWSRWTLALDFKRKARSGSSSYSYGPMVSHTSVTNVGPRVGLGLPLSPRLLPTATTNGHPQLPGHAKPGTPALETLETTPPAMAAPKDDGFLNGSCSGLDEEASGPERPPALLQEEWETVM
Description: For cAMP dose-response assays, monolayers of confluent HEK 293 cells were pre-incubated with buffer containing d-luciferin (0.5 mM) in 96 well plates at room temperature until a stable baseline level of luminescence was established (30 min). Varying concentrations of agonist were then added, and the time course of luminescence response was recorded using a Perkin Elmer plate reader following α/β-peptide addition.

[2] = Calcemic response in mice after subcutaneous injection; assay type: in vivo; conditions: 20 nmol/kg
Description: Compound concentrations were determined by submitting plasma to a cAMP GloSensor assay, quantification of luminescence readout, and conversion to peptide concentration via standard curve. […] See also FIGS. 12A, 12B and 12C.
Mice (C57BL/6, male, age 9-12 weeks) were treated in accordance with the ethical guidelines adopted by Massachusetts General Hospital. […] Blood was withdrawn just prior to injection (t=0) or at times thereafter. Tail vein blood was collected and immediately used for analysis. Blood Ca^2+ concentration was measured with a Chiron Diagnostics model 634 Ca^2+/pH analyzer.

PTHR1 = target: T2, PTHR1 (Homo sapiens, UniProt Q03431); assay: Inhibition of PTH-induced PTHR1 cAMP signaling by bPTH(7-34) analogs; conditions: Table 18; [Inhibitor] = 1 μM
T2 sequence (Q03431 27-593): T1 sequence (Q03431 27-593)

R^0 form of human PTHR-1 = target: T3, R^0 form of human PTHR-1 (Homo sapiens, UniProt Q03431); assay: Radio-ligand competition binding to R^0 form of human PTHR-1 (COS-7 membranes, 125I-PTH(1-34) tracer, GTPγS)
T3 construct: expressed in transfected cells; host or cells: COS-7
T3 sequence (Q03431 27-593): T1 sequence (Q03431 27-593)
Description: (§1) Data are means (±SEM) of n≥4 experiments, each performed in duplicate.

RG form of human PTHR-1 = target: T4, RG form of human PTHR-1 (Homo sapiens, UniProt Q03431); assay: Radio-ligand competition binding to RG form of human PTHR-1 (COS-7 membranes, 125I-M-PTH(1-15) tracer, high affinity Gαs mutant)
T4 construct: expressed in transfected cells; host or cells: COS-7
T4 sequence (Q03431 27-593): T1 sequence (Q03431 27-593)
Description: as §1

R^0 form of rat PTHR-1 = target: T5, R^0 form of rat PTHR-1 (Rattus norvegicus, UniProt P25961); assay: Radio-ligand competition binding to R^0 form of rat PTHR-1; conditions: Table 5; ratio of R^0 to RG IC50, rat PTHR-1
T5 construct: expressed in transfected cells; host or cells: COS-7
T5 sequence (P25961 27-591): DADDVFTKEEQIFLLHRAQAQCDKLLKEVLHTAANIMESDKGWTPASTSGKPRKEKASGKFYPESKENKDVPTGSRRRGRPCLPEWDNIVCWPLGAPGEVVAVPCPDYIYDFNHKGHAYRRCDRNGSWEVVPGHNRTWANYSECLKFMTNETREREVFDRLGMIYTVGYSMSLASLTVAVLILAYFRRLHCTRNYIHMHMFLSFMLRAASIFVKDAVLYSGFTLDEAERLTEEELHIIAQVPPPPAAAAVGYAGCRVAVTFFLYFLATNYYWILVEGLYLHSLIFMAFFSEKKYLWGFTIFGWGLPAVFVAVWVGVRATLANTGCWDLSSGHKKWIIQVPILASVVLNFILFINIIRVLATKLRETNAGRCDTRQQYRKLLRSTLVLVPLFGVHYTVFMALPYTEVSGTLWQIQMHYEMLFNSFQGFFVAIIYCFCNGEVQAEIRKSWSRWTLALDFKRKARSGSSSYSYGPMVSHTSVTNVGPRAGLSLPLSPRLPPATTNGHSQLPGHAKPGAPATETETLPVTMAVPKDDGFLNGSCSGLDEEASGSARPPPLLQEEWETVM
Description: as §1

RG form of rat PTHR-1 = target: T6, RG form of rat PTHR-1 (Rattus norvegicus, UniProt P25961); assay: Radio-ligand competition binding to RG form of rat PTHR-1; conditions: Table 5; rat PTHR-1; mean ± SEM; read-out: RG -log (IC50) (converted)
T6 construct: expressed in transfected cells; host or cells: COS-7
T6 sequence (P25961 27-591): T5 sequence (P25961 27-591)
Description: as §1

WT human PTHR-1 = target: T7, WT human PTHR-1 (Homo sapiens, UniProt Q03431); assay: cAMP GloSensor dose-response in GP-2.3 cells expressing human PTHR-1; assay type: cell-based
T7 construct: bioactivity of the resulting compound in full-length hPTHR-1 and a truncated version; expressed in transfected cells
T7 sequence (Q03431 27-593): T1 sequence (Q03431 27-593)
Procedure, shortened: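 Confluent cells preloaded with 0.5 mM d-luciferin at room temperature until luminescence baseline stabilised (30 min), then given varying agonist concentrations. Luminescence time course recorded after α/β-peptide addition. Means ±SEM of n>4 experiments, each in duplicate.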

WT rat PTHR-1 = target: T8, WT rat PTHR-1 (Rattus norvegicus, UniProt P25961); assay: cAMP GloSensor dose-response in GR-35 cells expressing rat PTHR-1; assay type: cell-based; conditions: Table 7
T8 construct: expressed in transfected cells
T8 sequence (P25961 27-591): T5 sequence (P25961 27-591)

In the case of `CC[C@H](C)[C@H](NC(=O)[C@H](CCC(=O)O)NC(=O)[C@H](C)NC(=O)[C@@H](NC(=O)[C@H](C)N)C(C)C)C(=O)N[C@@H](CCC(N)=O)C(=O)N[C@@H](CC(C)C)C(=O)N[C@@H](CCSC)C(=O)N[C@@H](Cc1cnc[nH]1)C(=O)N[C@@H](CCC(N)=O)C(=O)N[C@@H](CCCCNC(=N)N)C(=O)N[C@@H](C)C(=O)N[C@@H](CCCCN)C(=O)N[C@@H](Cc1c[nH]c2ccccc12)C(=O)N[C@@H](CC(C)C)C(=O)N[C@@H](CC(N)=O)C(=O)N[C@@H](CO)C(=O)N[C@@H](CCSC)C(=O)N[C@@H](CCCNC(=N)N)C(=O)N[C@@H](CCCNC(=N)N)C(=O)N[C@H](C(=O)N[C@@H](CCC(=O)O)C(=O)N[C@@H](Cc1c[nH]c2ccccc12)C(=O)N[C@@H](CC(C)C)C(=O)N[C@@H](CCCNC(=N)N)C(=O)N[C@@H](CCCCN)C(=O)N[C@@H](CCCCN)C(=O)N[C@@H](CC(C)C)C(=O)N[C@@H](CCC(N)=O)C(=O)N[C@@H](CC(=O)O)C(=O)N[C@H](C(=O)N[C@@H](Cc1cnc[nH]1)C(=O)N[C@@H](CC(N)=O)C(=O)N[C@@H](Cc1ccccc1)C(N)=O)C(C)C)C(C)C` [M-PTH(1-34)] (H-AVAEIQLMHQ[hArg]AKWLNSMRRVEWLRKKLQDVHNF-NH2), the “bioavailability (previously shown)” value [1] is given as “native-like bioavailability”.
For `CC[C@H](C)[C@H](NC(=O)[C@H](CCC(=O)O)NC(=O)[C@H](CO)NC(=O)[C@@H](NC(=O)[C@@H](N)CO)C(C)C)C(=O)N[C@@H](CCC(N)=O)C(=O)N[C@@H](CC(C)C)C(=O)N[C@@H](CCSC)C(=O)N[C@@H](Cc1c[nH]cn1)C(=O)N[C@@H](CC(N)=O)C(=O)N[C@@H](CC(C)C)C(=O)NCC(=O)N[C@@H](CCCCN)C(=O)N[C@H]1CCC[C@@H]1C(=O)N[C@@H](CC(C)C)C(=O)N[C@@H](CC(N)=O)C(=O)N[C@@H](CO)C(=O)N[C@H]1CCC[C@@H]1C(=O)N[C@@H](CCC(=O)O)C(=O)N[C@@H](CCCNC(=N)N)C(=O)N[C@H](C(=O)N[C@H]1CNC[C@@H]1C(=O)N[C@@H](Cc1c[nH]c2ccccc12)C(=O)N[C@@H](CC(C)C)C(=O)N[C@@H](CCCNC(=N)N)C(=O)N[C@H]1CNC[C@@H]1C(=O)N[C@@H](CCCCN)C(=O)N[C@@H](CC(C)C)C(=O)N[C@@H](CCC(N)=O)C(=O)N[C@H]1CCC[C@@H]1C(=O)N[C@H](C(=O)N[C@@H](Cc1c[nH]cn1)C(=O)N[C@@H](CC(N)=O)C(=O)N[C@H]1CCC[C@@H]1C(N)=O)C(C)C)C(C)C` [FcycD6, SVSEIQLMHNLGKXLNSXERVZWLRZKLQXVHNX-NH2] (H-SVSEIQLMHNLGK[X12]LNS[X12]ERV[X13]WLR[X13]KLQ[X12]VHN-{NH(1S,2S-2-CONH2-cPent)}; N-terminus assumed), the “Fold PTH” value (PTHR) was 3.2, the EC50 (PTHR; read-out: EC50, nM (cAMP induction potency)) was 0.26 ± 0.05 nM and the “calcemic response (blood Ca^2+ concentration)” value [2] was “very marked activity to increase calcium blood levels”.
In the case of “FMHNLWKWLSSMERVEWLRKKLQDVHNF-NH2 [D6 bPTH(7-34) dTrp12]”, the “EC50(+)inhibitor/EC50(−)inhibitor” value (PTHR1) is reported as 16.49.
For `CC[C@H](C)[C@H](NC(=O)[C@H](CCC(=O)O)NC(=O)[C@H](CO)NC(=O)[C@@H](NC(=O)[C@@H](N)CO)C(C)C)C(=O)N[C@@H](CCC(N)=O)C(=O)N[C@@H](CC(C)C)C(=O)N[C@@H](CCSC)C(=O)N[C@@H](Cc1c[nH]cn1)C(=O)N[C@@H](CC(N)=O)CC(=O)N[C@@H](CC(C)C)C(=O)NCC(=O)N[C@@H](CCCCN)C(=O)N[C@H](CC(=O)N[C@@H](CC(C)C)C(=O)N[C@@H](CC(N)=O)C(=O)N[C@@H](CO)C(=O)N[C@@H](CCSC)CC(=O)N[C@@H](CCC(=O)O)C(=O)N[C@@H](CCCNC(=N)N)C(=O)N[C@H](C(=O)N[C@@H](CCC(=O)O)CC(=O)N[C@@H](Cc1c[nH]c2ccccc12)C(=O)N[C@@H](CC(C)C)C(=O)N[C@@H](CCCNC(=N)N)C(=O)N[C@@H](CCCCN)CC(=O)N[C@@H](CCCCN)C(=O)N[C@@H](CC(C)C)C(=O)N[C@@H](CCC(N)=O)C(=O)N[C@@H](CC(=O)O)CC(=O)N[C@H](C(=O)N[C@@H](Cc1c[nH]cn1)C(=O)N[C@@H](CC(N)=O)C(=O)N[C@H](CC(N)=O)Cc1ccccc1)C(C)C)C(C)C)Cc1c[nH]c2ccccc12` [D7] (H-SVSEIQLMH[β3hN]LGK[β3hW]LNS[β3hM]ERV[β3hE]WLR[β3hK]KLQ[β3hD]VHN[β3hF]-NH2), the IC50 (R^0 form of human PTHR-1) was 3.5 nM, the “R^0/RG” value (R^0 form of human PTHR-1; Table 4, ratio of R^0 to RG IC50, human PTHR-1) was 15 and the IC50 (RG form of human PTHR-1) was 0.24 nM. For the same compound, the IC50 (RG form of human PTHR-1; Table 4, human PTHR-1, mean ± SEM, read-out: RG -log (IC50) (converted)) was 0.234 nM, the “R^0/RG” value (R^0 form of rat PTHR-1) was 7 and the IC50 (RG form of rat PTHR-1) was 2.04 nM. The EC50 (WT human PTHR-1) was 0.39 nM, the “cAMP (hPTHR-1) Max” value (WT human PTHR-1; Table 1, luminescence counts per second relative to PTH(1-34), 12-16 minutes after ligand addition) was 0.85 and the “Fold nM PTH(1-34)” value (WT human PTHR-1; Table 6, EC50 relative to PTH(1-34)) was 2.26. For the same compound, the Max (WT human PTHR-1; Table 6, GP-2.3 cells, 12-16 minutes after ligand addition, mean ± SEM) was 184 ± 18 luminescence counts per second × 10^−3, the “Fold nM PTH(1-34)” value (WT rat PTHR-1; EC50 relative to PTH(1-34)) was 3.89 and the Max (WT rat PTHR-1; GR-35 cells, 12-16 minutes after ligand addition, mean ± SEM) was 40 ± 18 luminescence counts per second × 10−3. It also gave an EC50 (WT rat PTHR-1; GR-35 cells, read-out: EC50) of 1.62 nM.
For “XMHNLWKWLSSMERVEWLRKKLQDVHNF-NH2 [D6 bPTH(7-34) dTrp12 ACPC7]”, the “EC50(+)inhibitor/EC50(−)inhibitor” value (PTHR1) was 4.38.
